Measured values published in PMC12236907, “A Natural Depsipeptide Antibiotic that Targets the E site of the Bacterial Ribosome” (Research Square, 2025).
Entries after “also recorded” stand apart in the source; their conditions may differ. Where a SMILES comes first, the peptide text is derived from it. Bridges are numbered along the chain shown (N, C = ends). [ ]: non-standard residue; d: D form. dOrn = NCCC[C@@H](N)C(=O)O

What was measured:
E. coli ribosome = assay: In vitro translocation assay; format: biochemical; details: mRNA MFK; 50 μM MKM or 250 μM negamycin; 1 μM E. coli ribosomes
Procedure: In vitro translocation assay was carried out using the model mRNA MFK (Supplementary Table 7) as described in the reference. The mRNA was prepared by in vitro transcription of a PCR product amplified using the primers MF_F1, MF_F2, and MF_R (Supplementary Table 6). A 4.5 μl reaction containing 1 μM E. coli ribosomes, 0.5 μM mRNA, 1 μM tRNAi^Met, 0.5 μM radiolabelled NV1 primer (Supplementary Table 6), 2 U/μl RiboLock RNase Inhibitor (Thermo), and antibiotic tested (50 μM MKM or 250 μM negamycin) in Pure System Buffer (PSB; 9 mM Mg(CH3COO)2, 5 mM K3PO4, 95 mM potassium glutamate, 5 mM NH4Cl, 0.5 mM CaCl2, 1 mM spermidine, 8 mM putrescine, 1 mM dithiothreitol, pH 7.3)[87] was incubated for 20 min at 37°C. Then N-acetyl-Phe-N-tRNAPhe, in which amino acid is attached to the tRNA’s A3’ hydroxyl via an amide bond, was added to the final concentration of 2 μM followed by 10 min incubation at 37°C. After addition of the E. coli EF-G and GTP to the final concentrations of 0.2 μM and 533 μM, respectively and incubation for 5 min at 30°C, 1 μl of the mixture of AMV reverse transcriptase (Roche) and dNTPs (2.1 U/μl AMV RT and 2 mM dNTPs in PSB) was added, and the reactions were incubated for another 5 min at 30°C. […]

bacterial ribosome = assay: Toeprinting analysis of MKM-induced ribosome stalling; format: biochemical, E. coli
Procedure: Toeprinting analysis was carried out in the E. coli in vitro transcription-translation system assembled from the purified components (PURExpress, NEB). Toeprinting was carried out using either ^32P-radiolabeled or fluorescently labeled reverse transcription primers, following the procedures described previously[21],[26],[27].
Reactions either contained no antibiotic or were supplemented with 50 μM retapamulin or varying concentrations of MKM. The inhibitors of aminoacyl-tRNA synthetases (mupirocin, Gly-AMS (MedChemExpress: Cat. No.: HY-108940), or Arg-AMS (MedChemExpress, Cat. No.: HY-112862)) were added to the final concentrations of 50 μM to stall translation at downstream “catch codons” (Ile, Gly, or Arg, respectively). The gltX template was prepared by amplifying the gltX gene from E. coli BW25113 genomic DNA using the primers T7_gltX_F and gltX_NV1_R (Supplementary Table 6). The yrbA_wt template and its derivatives containing 3-Ser or 3-Thr codons were generated by four-primer PCRs using the primers T7_IR_AUG_F, yrbA_wt_F / yrbA_TTT_F / yrbA_SSS_F, yrbA_wt_R/yrbA_Ile_catch_R, and posT-NV1_R (Supplementary Table 6).
Fluorescently labeled reactions were carried out on the ermBL toeprint mRNA template. The template was generated by PCR of two overlapping 77-nt- and 78-nt-long primers T7_ermBL_F and ermBL_UGA_R (Supplementary Table 6). Reactions were assembled in a 6 μl volume with 30 ng of the ermBL mRNA template and incubated for 15 min at 37 °C. Reverse transcription was carried out using AMV RT and primer NV*1-Alexa 647 (Supplementary Table 6) for 20 min at 37 °C. Reactions were terminated with 1 μl of 5 M NaOH, neutralized with 0.7 μl of 25% HCl, and nucleotide removal was performed with the QIAquick Nucleotide Removal Kit (Qiagen). The samples were dried under vacuum for 2 hours at 60 °C for subsequent gel electrophoresis. The 6% acrylamide gels were scanned on a Typhoon scanner (GE Healthcare). The sequences of all toeprinting templates used in the study can be found in Supplementary Table 7.

Compound: C[C@@H](O)[C@@H]1NC(=O)[C@@H](CCCNC(=N)N)NC(=O)[C@@H](CCCNC(=N)N)NC(=O)[C@@H](CC(N)=O)NC(=O)[C@@H](NC(=O)[C@@H](Cc2ccccc2)NC(=O)[C@@H](CCCN)NC(=O)[C@H](N)CCCNC(=N)N)[C@@H](C)OC(=O)[C@H](Cc2c[nH]cn2)NC1=O [MKM, manikomycin A] (H-[dR][dOrn][dF]T[dN][dR][dR]TH; ester 4-C)
- inhibition of EF-G-dependent translocation (E. coli ribosome): notably inhibited
- ribosome stalling, ermBL mRNA (bacterial ribosome; E. coli in vitro protein synthesis system, ermBL template): ribosomes stall primarily on the third codon; also recorded: stalled the ribosome on the third codon
- ribosome stalling, gltX template (bacterial ribosome; gltX template, Gly-AMS in all reactions): arrested some ribosomes at the start codon, a notable fraction of them became arrested at several specific sites along the mRNA
- ribosome stalling, yrbA-SSS template (bacterial ribosome; yrbA with three Ser codons after start codon, high concentrations of MKM): no ribosomes pass downstream of the start codon
- ribosome stalling, yrbA-TTT template (bacterial ribosome; yrbA with three Thr codons after start codon): a fraction of ribosomes was able to move through the Thr codons
